Legend:
Assay in all cases: biochemical
Design in all cases: DiscoveRx KINOMEscan competition binding, percent of DMSO control signal at 100 nM
Conditions in all cases: read-out: Fig. 4a / Percent Control / Compound 1; percent of DMSO control, competition binding
MAPKAPK5 = MAPKAPK5 (Homo sapiens, UniProt Q8IW41)
CSNK1G2 = CSNK1G2 (Homo sapiens, UniProt P78368)
FGFR4 = FGFR4 (Homo sapiens, UniProt P22455)
ABL1-phosphorylated = molecular target: T1, ABL1-phosphorylated (Homo sapiens, UniProt P00519)
T1 construct: phosphorylated

EPHA3 = EPHA3 (Homo sapiens, UniProt P29320)
TTK = TTK (Homo sapiens, UniProt P33981)
[1] = molecular target: T2, ABL1(H396P)-phosphorylated (Homo sapiens, UniProt P00519, H396P)
T2 construct: phosphorylated

RIPK1 = RIPK1 (Homo sapiens, UniProt Q13546)
BRSK2 = BRSK2 (Homo sapiens, UniProt Q8IWQ3)
HIPK2 = HIPK2 (Homo sapiens, UniProt Q9H2X6)
Chain of HIPK2 (Q9H2X6 whole entry): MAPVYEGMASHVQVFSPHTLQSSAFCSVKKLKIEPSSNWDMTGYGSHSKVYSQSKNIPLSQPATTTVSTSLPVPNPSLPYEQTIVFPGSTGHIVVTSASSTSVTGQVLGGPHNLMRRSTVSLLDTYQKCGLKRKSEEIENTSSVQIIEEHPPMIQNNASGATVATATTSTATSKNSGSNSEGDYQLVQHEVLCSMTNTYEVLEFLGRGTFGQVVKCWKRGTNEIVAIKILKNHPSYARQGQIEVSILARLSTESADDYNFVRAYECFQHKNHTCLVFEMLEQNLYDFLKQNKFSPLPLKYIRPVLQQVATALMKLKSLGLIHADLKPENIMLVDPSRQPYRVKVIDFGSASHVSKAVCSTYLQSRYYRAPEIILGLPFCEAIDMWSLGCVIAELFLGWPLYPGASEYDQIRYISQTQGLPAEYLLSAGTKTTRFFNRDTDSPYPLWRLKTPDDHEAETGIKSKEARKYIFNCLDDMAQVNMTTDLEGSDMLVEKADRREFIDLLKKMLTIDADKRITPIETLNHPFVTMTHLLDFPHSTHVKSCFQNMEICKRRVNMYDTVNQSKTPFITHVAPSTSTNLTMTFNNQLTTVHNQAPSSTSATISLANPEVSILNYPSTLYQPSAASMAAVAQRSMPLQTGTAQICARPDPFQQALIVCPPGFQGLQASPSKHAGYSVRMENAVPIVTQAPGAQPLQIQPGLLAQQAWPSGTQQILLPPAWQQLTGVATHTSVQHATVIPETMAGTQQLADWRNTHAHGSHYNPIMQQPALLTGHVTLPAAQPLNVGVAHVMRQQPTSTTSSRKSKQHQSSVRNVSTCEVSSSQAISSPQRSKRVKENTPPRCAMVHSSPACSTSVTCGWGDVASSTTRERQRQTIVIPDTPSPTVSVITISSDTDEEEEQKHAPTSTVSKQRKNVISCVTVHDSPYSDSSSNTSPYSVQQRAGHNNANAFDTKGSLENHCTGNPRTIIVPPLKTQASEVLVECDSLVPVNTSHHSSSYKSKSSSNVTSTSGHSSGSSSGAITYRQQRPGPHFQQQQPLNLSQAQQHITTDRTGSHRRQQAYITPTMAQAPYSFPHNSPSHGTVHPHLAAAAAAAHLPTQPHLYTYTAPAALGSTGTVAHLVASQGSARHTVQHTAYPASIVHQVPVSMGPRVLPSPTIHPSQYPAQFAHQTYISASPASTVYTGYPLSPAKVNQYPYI

MAP4K5 = MAP4K5 (Homo sapiens, UniProt Q9Y4K4)
WNK3 = WNK3 (Homo sapiens, UniProt Q9BYP7)
Chain of WNK3 (Q9BYP7 whole entry): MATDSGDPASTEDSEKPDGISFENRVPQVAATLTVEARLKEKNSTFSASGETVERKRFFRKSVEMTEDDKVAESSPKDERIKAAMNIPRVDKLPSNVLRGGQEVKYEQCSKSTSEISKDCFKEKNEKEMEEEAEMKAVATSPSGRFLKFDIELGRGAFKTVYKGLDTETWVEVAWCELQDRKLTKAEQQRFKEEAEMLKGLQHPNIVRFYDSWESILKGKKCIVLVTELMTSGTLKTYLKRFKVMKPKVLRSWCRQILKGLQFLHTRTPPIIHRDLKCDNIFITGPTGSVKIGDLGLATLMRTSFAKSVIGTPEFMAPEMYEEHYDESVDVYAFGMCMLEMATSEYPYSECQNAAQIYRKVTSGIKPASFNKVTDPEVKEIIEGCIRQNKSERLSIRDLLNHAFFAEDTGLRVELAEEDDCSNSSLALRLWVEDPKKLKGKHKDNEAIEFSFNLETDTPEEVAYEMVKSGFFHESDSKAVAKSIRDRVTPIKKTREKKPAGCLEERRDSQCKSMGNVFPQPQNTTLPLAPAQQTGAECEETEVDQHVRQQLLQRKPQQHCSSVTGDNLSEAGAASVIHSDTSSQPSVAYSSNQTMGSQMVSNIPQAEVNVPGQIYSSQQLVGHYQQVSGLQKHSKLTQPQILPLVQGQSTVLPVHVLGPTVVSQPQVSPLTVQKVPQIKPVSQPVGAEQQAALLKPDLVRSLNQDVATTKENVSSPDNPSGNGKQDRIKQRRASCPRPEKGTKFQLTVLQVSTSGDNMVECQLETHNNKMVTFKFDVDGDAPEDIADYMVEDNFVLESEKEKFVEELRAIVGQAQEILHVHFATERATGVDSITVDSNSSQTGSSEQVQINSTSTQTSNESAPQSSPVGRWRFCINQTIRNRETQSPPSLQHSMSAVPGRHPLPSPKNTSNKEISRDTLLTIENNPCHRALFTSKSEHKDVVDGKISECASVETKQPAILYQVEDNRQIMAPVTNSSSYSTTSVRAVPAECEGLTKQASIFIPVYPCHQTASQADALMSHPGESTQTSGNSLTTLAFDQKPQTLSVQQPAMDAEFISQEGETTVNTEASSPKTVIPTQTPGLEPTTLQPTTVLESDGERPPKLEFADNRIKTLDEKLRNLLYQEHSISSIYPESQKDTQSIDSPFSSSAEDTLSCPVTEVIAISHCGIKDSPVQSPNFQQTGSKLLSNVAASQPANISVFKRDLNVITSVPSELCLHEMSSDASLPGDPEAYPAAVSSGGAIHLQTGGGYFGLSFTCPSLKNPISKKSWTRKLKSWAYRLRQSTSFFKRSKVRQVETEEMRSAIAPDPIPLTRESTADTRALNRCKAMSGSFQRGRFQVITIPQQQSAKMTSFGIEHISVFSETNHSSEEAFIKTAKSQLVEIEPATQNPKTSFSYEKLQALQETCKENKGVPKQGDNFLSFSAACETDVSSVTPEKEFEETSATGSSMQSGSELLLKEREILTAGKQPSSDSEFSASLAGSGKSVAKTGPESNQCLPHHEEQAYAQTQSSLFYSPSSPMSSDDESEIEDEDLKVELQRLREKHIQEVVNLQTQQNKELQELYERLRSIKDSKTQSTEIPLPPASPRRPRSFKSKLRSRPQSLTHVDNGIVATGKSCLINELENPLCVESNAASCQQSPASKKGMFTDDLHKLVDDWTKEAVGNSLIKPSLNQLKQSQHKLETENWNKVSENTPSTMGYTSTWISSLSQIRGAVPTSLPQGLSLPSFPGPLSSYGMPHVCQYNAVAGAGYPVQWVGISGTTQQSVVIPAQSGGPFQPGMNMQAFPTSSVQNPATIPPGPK

PRKCH = PRKCH (Homo sapiens, UniProt P24723)
MELK = MELK (Homo sapiens, UniProt Q14680)
Chain of MELK (Q14680 whole entry): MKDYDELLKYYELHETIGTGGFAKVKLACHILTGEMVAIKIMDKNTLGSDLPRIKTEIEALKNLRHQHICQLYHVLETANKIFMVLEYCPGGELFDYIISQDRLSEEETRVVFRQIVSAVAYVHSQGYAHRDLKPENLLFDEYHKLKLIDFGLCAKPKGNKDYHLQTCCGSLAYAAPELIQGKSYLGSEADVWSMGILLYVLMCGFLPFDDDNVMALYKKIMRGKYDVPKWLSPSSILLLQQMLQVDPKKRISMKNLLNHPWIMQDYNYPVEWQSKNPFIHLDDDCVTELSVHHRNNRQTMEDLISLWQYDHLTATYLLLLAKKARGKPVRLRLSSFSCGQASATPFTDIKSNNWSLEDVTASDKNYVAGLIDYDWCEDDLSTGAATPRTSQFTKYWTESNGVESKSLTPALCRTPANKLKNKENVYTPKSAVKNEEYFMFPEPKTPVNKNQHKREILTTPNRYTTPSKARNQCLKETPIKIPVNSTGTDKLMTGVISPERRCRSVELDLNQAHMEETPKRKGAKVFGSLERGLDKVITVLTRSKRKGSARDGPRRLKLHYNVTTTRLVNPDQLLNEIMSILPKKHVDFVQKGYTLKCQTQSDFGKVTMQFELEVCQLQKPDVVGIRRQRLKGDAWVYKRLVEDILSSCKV

SRPK2 = SRPK2 (Homo sapiens, UniProt P78362)
GRK7 = GRK7 (Homo sapiens, UniProt Q8WTQ7)
MTOR = MTOR (Homo sapiens, UniProt P42345)
ASK2 = molecular target: T3, ASK2 (Homo sapiens, UniProt O95382)
T3 construct: gene MAP3K6
T3 sequence (O95382 whole entry): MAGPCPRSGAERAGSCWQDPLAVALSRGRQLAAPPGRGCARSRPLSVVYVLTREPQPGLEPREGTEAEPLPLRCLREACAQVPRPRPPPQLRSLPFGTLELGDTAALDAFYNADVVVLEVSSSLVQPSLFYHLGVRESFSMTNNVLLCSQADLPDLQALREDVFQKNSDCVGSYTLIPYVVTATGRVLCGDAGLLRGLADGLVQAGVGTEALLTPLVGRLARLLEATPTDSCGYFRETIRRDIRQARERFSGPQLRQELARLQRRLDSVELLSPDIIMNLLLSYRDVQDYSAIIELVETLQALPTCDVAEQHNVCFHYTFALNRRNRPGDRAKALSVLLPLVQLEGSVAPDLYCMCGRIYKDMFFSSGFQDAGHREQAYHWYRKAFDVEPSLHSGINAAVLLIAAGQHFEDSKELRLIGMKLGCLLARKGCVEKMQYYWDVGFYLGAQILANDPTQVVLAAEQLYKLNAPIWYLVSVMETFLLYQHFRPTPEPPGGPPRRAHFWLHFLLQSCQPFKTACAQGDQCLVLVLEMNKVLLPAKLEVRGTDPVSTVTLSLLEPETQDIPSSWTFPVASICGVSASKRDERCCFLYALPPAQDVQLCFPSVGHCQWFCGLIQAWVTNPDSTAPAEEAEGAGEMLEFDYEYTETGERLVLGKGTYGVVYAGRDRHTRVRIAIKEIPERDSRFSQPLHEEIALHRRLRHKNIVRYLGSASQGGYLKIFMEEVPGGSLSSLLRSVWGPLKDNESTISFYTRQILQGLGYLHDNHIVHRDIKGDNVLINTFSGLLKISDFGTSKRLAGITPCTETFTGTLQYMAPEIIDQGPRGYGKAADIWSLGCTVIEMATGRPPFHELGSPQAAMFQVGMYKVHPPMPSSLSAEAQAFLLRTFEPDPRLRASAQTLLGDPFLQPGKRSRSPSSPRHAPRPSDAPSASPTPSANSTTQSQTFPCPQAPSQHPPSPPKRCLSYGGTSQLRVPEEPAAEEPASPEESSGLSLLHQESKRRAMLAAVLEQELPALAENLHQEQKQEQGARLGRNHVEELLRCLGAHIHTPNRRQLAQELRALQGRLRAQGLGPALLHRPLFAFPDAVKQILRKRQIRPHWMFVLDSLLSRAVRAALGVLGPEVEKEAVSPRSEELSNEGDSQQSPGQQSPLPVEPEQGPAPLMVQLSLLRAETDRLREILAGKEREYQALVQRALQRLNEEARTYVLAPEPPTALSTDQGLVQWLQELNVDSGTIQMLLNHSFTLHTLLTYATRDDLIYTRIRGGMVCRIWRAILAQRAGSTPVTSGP

CDK9 = CDK9 (Homo sapiens, UniProt P50750)
CDC2L1 = molecular target: T4, CDC2L1 (Homo sapiens, UniProt P21127)
T4 construct: gene CDK11B

BTK = BTK (Homo sapiens, UniProt Q06187)
CDK5 = CDK5 (Homo sapiens, UniProt Q00535)
[2] = molecular target: T5, RSK1(Kin.Dom.2-C-terminal) (Homo sapiens, UniProt Q15418)
T5 construct: gene RPS6KA1; Kin.Dom.2-C-terminal

TESK1 = TESK1 (Homo sapiens, UniProt Q15569)
PKAC-alpha = molecular target: T6, PKAC-alpha (Homo sapiens, UniProt P17612)
T6 construct: gene PRKACA
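Further: KINOMEscan kinase panel binding assay, signal normalized between DMSO as 100% and a positive control compound as 0%.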

`Cc1cnc2nc1Nc1cccc(c1)COCc1cc(ccc1OCCN1CCCC1)N2` [Compound 1] showed a remaining binding at 0.1 µM (MAPKAPK5) of 69%, a remaining binding at 0.1 µM (CSNK1G2) of 99% and a remaining binding at 0.1 µM (FGFR4) of 97%. For the same compound, the remaining binding at 0.1 µM (ABL1-phosphorylated) was 90%, the remaining binding at 0.1 µM (EPHA3) was 85% and the remaining binding at 0.1 µM (TTK) was 95%. It also gave a remaining binding at 0.1 µM [1] of 83%, a remaining binding at 0.1 µM (RIPK1) of 93% and a remaining binding at 0.1 µM (BRSK2) of 94%. For the same compound, the remaining binding at 0.1 µM (HIPK2) was 100%, the remaining binding at 0.1 µM (MAP4K5) was 98% and the remaining binding at 0.1 µM (WNK3) was 95%. The remaining binding at 0.1 µM (PRKCH) was 91%, the remaining binding at 0.1 µM (MELK) was 100% and the remaining binding at 0.1 µM (SRPK2) was 100%. For the same compound, the remaining binding at 0.1 µM (GRK7) was 93%, the remaining binding at 0.1 µM (MTOR) was 82% and the remaining binding at 0.1 µM (ASK2) was 96%. It also gave a remaining binding at 0.1 µM (CDK9) of 99%, a remaining binding at 0.1 µM (CDC2L1) of 96% and a remaining binding at 0.1 µM (BTK) of 86%. It also gave a remaining binding at 0.1 µM (CDK5) of 100%, a remaining binding at 0.1 µM [2] of 98% and a remaining binding at 0.1 µM (TESK1) of 85%. It also gave a remaining binding at 0.1 µM (PKAC-alpha) of 99%.

— paper PMC10382584, “Macrocyclization of linear molecules by deep learning to facilitate macrocyclic drug candidates discovery” (Nature Communications, 2023)
